Among the test systems are 786-0 renal; A549 NSCLC; COLO 205 colon; NCI-H460 lung; NCI-H522 lung; OVCAR-8 ovarian; RPMI-8226 leukemia; SF-539 CNS; SK-MEL-2 melanoma; TK-10 renal.
Common to all, as to assay: NCI anticancer screen, dose series, 48 h

Each structure is given as a SMILES string. “And” between values parts separate entries of the source, which are not always exact repeats. Equal entries are not always repeated.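 Method: 48-hour compound exposure of cells in 96-well plates, five concentrations, linear interpolation of endpoints. GI50 marks 50% less growth. At the TGI there is no net growth.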 Where only a bound is given, the exact number is not on record here.

With `N=C1C(c2nc3ccccc3s2)=C(O)CN1c1ccc(Cl)cc1Cl`, the GI50 with 786-0 renal was 16.9 µM; with A549 NSCLC it was 11.6 µM; with COLO 205 colon, 36.6 µM; in the test with NCI-H460 lung, 33.4 µM; in the test on NCI-H522 lung, 11.2 µM; in the test with OVCAR-8 ovarian it was 18.2 µM. Further, the GI50 in the test with RPMI-8226 leukemia is 18.9 µM; in the test on SF-539 CNS, 7.62 µM; in the test on SK-MEL-2 melanoma it was 27.6 µM; with TK-10 renal it was 14.4 µM. The TGI in the test on 786-0 renal was 48.2 µM; in the test on A549 NSCLC it was 35.6 µM; with COLO 205 colon it was over 100 µM; in the test with NCI-H460 lung, over 100 µM; in the test on NCI-H522 lung, 35.2 µM; with OVCAR-8 ovarian, 47.1 µM. The TGI in the test with RPMI-8226 leukemia was 62.1 µM; in the test with SF-539 CNS, 26.7 µM; in the test on SK-MEL-2 melanoma, 96.6 µM; in the test on TK-10 renal, 42.8 µM.
Regarding `CC1=C2C(=O)C(C)(C)C=C2C(=O)[C@](C)(O)C12CC2`, the TGI is over 1 µM in the test with 786-0 renal; over 1 µM with A549 NSCLC; over 1 µM with COLO 205 colon; over 1 µM with NCI-H460 lung; 0.7 µM in the test with NCI-H522 lung; over 1 µM with OVCAR-8 ovarian. For the same compound, the TGI in the test on RPMI-8226 leukemia, in the test with SF-539 CNS, in the test with SK-MEL-2 melanoma and in the test with TK-10 renal was over 1 µM each time.
In the case of `O=C(c1cc2c(C(F)(F)F)onc2c2ccccc12)C(F)(F)F`, the TGI in the test on 786-0 renal is over 45.1 µM; in the test with A549 NSCLC it was over 72.1 µM; in the test on COLO 205 colon it was 9.11 µM; with NCI-H460 lung it was 7.17 µM; with NCI-H522 lung, 6.25 µM; in the test on OVCAR-8 ovarian, 7.66 µM. Further, the TGI in the test with RPMI-8226 leukemia was found to be 12.8 µM; in the test on SF-539 CNS, 15.8 µM; in the test with SK-MEL-2 melanoma, 13.6 µM; in the test with TK-10 renal, 42.2 µM.
In the case of `NC(=O)c1cc(Cl)ccc1NC(=O)c1ccccc1-c1ccccc1`, the GI50 is 0.479 µM in the test with 786-0 renal; 1.16 µM in the test on A549 NSCLC; 0.923 µM in the test with COLO 205 colon; 0.453 µM with NCI-H460 lung; 0.289 µM in the test with NCI-H522 lung; 2.81 µM in the test with OVCAR-8 ovarian. For the same compound, the GI50 with RPMI-8226 leukemia was 2.1 µM; in the test on SF-539 CNS it was 0.319 µM; with SK-MEL-2 melanoma, 0.288 µM; in the test on TK-10 renal, 3.69 µM. In addition, the TGI was 17.9 µM in the test with 786-0 renal; over 100 µM in the test on A549 NSCLC; 5.52 µM in the test with COLO 205 colon; 28.7 µM in the test with NCI-H460 lung; 0.988 µM with NCI-H522 lung; over 100 µM with OVCAR-8 ovarian. Further, the TGI in the test with RPMI-8226 leukemia is over 100 µM; in the test on SF-539 CNS, 1.89 µM; with SK-MEL-2 melanoma, 0.799 µM; with TK-10 renal, 48 µM.
Take `COc1ccc(C(=O)C(Br)C(Br)C(=O)O)cc1` (stereo unspecified): the TGI in the test with 786-0 renal is 97.6 µM; with A549 NSCLC it was over 100 µM; with COLO 205 colon, 46.8 µM; in the test on NCI-H460 lung, over 100 µM; in the test with NCI-H522 lung it was 34.9 µM; in the test on OVCAR-8 ovarian, over 100 µM. The TGI in the test on RPMI-8226 leukemia was 53.2 µM; in the test with SF-539 CNS, 51.8 µM; in the test with SK-MEL-2 melanoma, over 100 µM; in the test on TK-10 renal, over 100 µM.
`CCC(O)(c1ccc(OC)cc1)C(c1ccc(OCc2ccccc2)cc1)c1ccc(OCc2ccccc2)cc1` (stereo unspecified): the TGI in the test on 786-0 renal, in the test on A549 NSCLC, in the test with COLO 205 colon, in the test on NCI-H460 lung, in the test with NCI-H522 lung and in the test with OVCAR-8 ovarian was over 100 µM in each case. The TGI with RPMI-8226 leukemia, in the test on SF-539 CNS, in the test on SK-MEL-2 melanoma and in the test on TK-10 renal was over 100 µM in each case.
For the compound `Cc1cccc2c1NC(=O)[C@@]21[C@H](C(=O)c2ccccc2)[C@]2(C(=O)Nc3ccccc32)[C@H]2CCCN21`, the GI50 with 786-0 renal was 36 µM; in the test with A549 NSCLC it was 58.9 µM; in the test on COLO 205 colon it was 46.2 µM; in the test with NCI-H460 lung, 24.6 µM; with NCI-H522 lung, 29.2 µM; in the test with OVCAR-8 ovarian it was 25.2 µM. The GI50 in the test with RPMI-8226 leukemia was over 100 µM; in the test on SF-539 CNS it was 18.6 µM; in the test with SK-MEL-2 melanoma, 50.5 µM; in the test with TK-10 renal it was 36.8 µM. Further, the TGI is over 100 µM in the test on 786-0 renal; over 100 µM in the test on A549 NSCLC; over 100 µM in the test on COLO 205 colon; over 100 µM with NCI-H460 lung; over 100 µM with NCI-H522 lung; 92.3 µM in the test with OVCAR-8 ovarian. In addition, the TGI in the test with RPMI-8226 leukemia is over 100 µM; in the test with SF-539 CNS, 48.9 µM; in the test with SK-MEL-2 melanoma, over 100 µM; with TK-10 renal, over 100 µM.
As for `O=c1ccccc(-c2ccc(-c3ccco3)cc2)c1O`, the GI50 in the test on 786-0 renal is 0.834 µM; in the test on A549 NSCLC, 1.39 µM; in the test with COLO 205 colon it was 3.1 µM; with NCI-H460 lung, 0.408 µM; with NCI-H522 lung, 4.07 µM; in the test with OVCAR-8 ovarian it was 0.507 µM. Also, the GI50 in the test with RPMI-8226 leukemia was 0.756 µM; in the test on SF-539 CNS it was 0.703 µM; with SK-MEL-2 melanoma it was 10.5 µM; with TK-10 renal it was 0.819 µM. Further, the TGI worked out at 14.7 µM in the test with 786-0 renal; 47.5 µM in the test on A549 NSCLC; 49.8 µM in the test with COLO 205 colon; 10.8 µM with NCI-H460 lung; 45.8 µM in the test on NCI-H522 lung; 29 µM with OVCAR-8 ovarian. The TGI in the test on RPMI-8226 leukemia was over 100 µM; in the test with SF-539 CNS, 6.38 µM; in the test with SK-MEL-2 melanoma, 44.2 µM; in the test with TK-10 renal it was 82.9 µM.
For `CCCC1C(=O)C(CC)Cc2c(OC)ccc(OC)c21` (stereo unspecified), the TGI in the test on 786-0 renal, with A549 NSCLC, in the test on COLO 205 colon, in the test with NCI-H460 lung, in the test on NCI-H522 lung and in the test on OVCAR-8 ovarian was over 100 µM throughout. Further, the TGI in the test with RPMI-8226 leukemia, in the test on SF-539 CNS, with SK-MEL-2 melanoma and in the test on TK-10 renal was over 100 µM throughout.
`C[C@@H](Oc1cc(NS(=O)(=O)N2CCC2)nc(SCc2cccc(F)c2F)n1)[C@@H](O)CO`: the GI50 in the test on 786-0 renal, with A549 NSCLC, with COLO 205 colon, with NCI-H460 lung, with NCI-H522 lung and in the test on OVCAR-8 ovarian was over 100 µM throughout. For the same compound, the GI50 with RPMI-8226 leukemia, in the test on SF-539 CNS, with SK-MEL-2 melanoma and with TK-10 renal was over 100 µM in each case. In addition, the TGI in the test with 786-0 renal, in the test with A549 NSCLC, with COLO 205 colon, in the test on NCI-H460 lung, in the test on NCI-H522 lung and with OVCAR-8 ovarian was over 100 µM in each case. The TGI with RPMI-8226 leukemia, in the test on SF-539 CNS, with SK-MEL-2 melanoma and in the test with TK-10 renal was over 100 µM each time.
Consider `COC1CC2C=CC3C4OC2(/C(C)=C/C(C)C(C(C)O)OC1=O)C3C(O)C(C)C4OC(=O)c1ccc[nH]1` (stereo unspecified), for which the TGI in the test with 786-0 renal, with A549 NSCLC, in the test on COLO 205 colon, in the test with NCI-H460 lung, in the test on NCI-H522 lung and with OVCAR-8 ovarian was over 100 µM throughout. Further, the TGI with RPMI-8226 leukemia, with SF-539 CNS, in the test with SK-MEL-2 melanoma and with TK-10 renal was over 100 µM each time.
In the case of `CC1OC(O[C@H]2/C=C/C=C/C=C/C=C/C=C/C=C/C=C/[C@H](C)[C@@H](O)[C@@H](C)[C@H](C)OC(=O)C[C@H](O)C[C@H](O)CC[C@@H](O)[C@H](O)C[C@H](O)C[C@]3(O)C[C@H](O)[C@@H](C(=O)O)[C@H](C2)O3)C(O)C(N)C1O` (stereo partly specified), the TGI came to 29.2 µM in the test with 786-0 renal; 34.9 µM in the test with A549 NSCLC; 45.2 µM in the test with COLO 205 colon; 40.4 µM in the test with NCI-H460 lung; 20.9 µM with NCI-H522 lung; 57.6 µM with OVCAR-8 ovarian. The TGI with RPMI-8226 leukemia was 60.3 µM; in the test with SF-539 CNS, 47.3 µM; in the test on SK-MEL-2 melanoma it was 59.3 µM; with TK-10 renal it was 46.3 µM. Besides, the GI50 with A549 NSCLC is 9.72 µM; with NCI-H460 lung, 19.1 µM; with OVCAR-8 ovarian, 33 µM; in the test on RPMI-8226 leukemia, 23.9 µM; in the test on SF-539 CNS it was 19.3 µM; with TK-10 renal it was 27.2 µM.
Take `COc1cc2c(Nc3ccc(Br)cc3F)ncnc2cc1OCC1CCN(C)CC1`: the GI50 in the test on 786-0 renal was 2.96 µM and 3.01 µM; in the test with A549 NSCLC it was 3.32 µM and 4.63 µM; in the test on COLO 205 colon, 3.6 µM and 4.33 µM; with NCI-H460 lung, 4.69 µM and 9.98 µM; in the test on NCI-H522 lung, 2 µM and 1.28 µM; in the test with OVCAR-8 ovarian, 5 µM and 7.4 µM. In addition, the GI50 was 3.33 µM and 6.84 µM in the test on RPMI-8226 leukemia; 2.93 µM and 7.94 µM in the test with SF-539 CNS; 5.33 µM and > 10 µM in the test with SK-MEL-2 melanoma; 0.317 µM and 0.54 µM in the test on TK-10 renal. For the same compound, the TGI in the test with 786-0 renal was 13.1 µM and > 10 µM; with A549 NSCLC it was 15.9 µM and > 10 µM; in the test with COLO 205 colon, 9.88 µM and > 10 µM; with NCI-H460 lung, 17 µM and > 10 µM; in the test with NCI-H522 lung, 7.31 µM and > 10 µM; in the test on OVCAR-8 ovarian, 18 µM and > 10 µM. For the same compound, the TGI was 14 µM and > 10 µM with RPMI-8226 leukemia; 9.49 µM and > 10 µM with SF-539 CNS; 10.9 µM and > 10 µM in the test with SK-MEL-2 melanoma; 6.58 µM and > 10 µM in the test with TK-10 renal.
Turning to `NCC1OC(n2cnc3c(=O)[nH]c(N)nc32)C(O)C1O` (stereo unspecified), the TGI with 786-0 renal, in the test with A549 NSCLC, in the test with COLO 205 colon, in the test with NCI-H460 lung, with NCI-H522 lung and in the test with OVCAR-8 ovarian was over 100 µM throughout. The TGI with RPMI-8226 leukemia was over 63.8 µM; in the test with SF-539 CNS, over 100 µM; with SK-MEL-2 melanoma, over 100 µM; with TK-10 renal it was over 100 µM.

For the origin of these results see PubChem BioAssay (NCI).
